The values below are quoted from earlier work in patent EP0211258A2, “Microemulsion compositions” (ABBOTT LABORATORIES, priority 1985, dated 1987).

Each structure is given as a SMILES string.

The conditions of the data set: commonly employed aqueous solutions, 2.5%, w/v.

As for `CCCC(C)C1(CC)C(=O)NC(=S)NC1=O` (stereo not shown) [thiopental sodium], the pH is reported as 10.5.
